Target: T1, purified human 15-lipoxygenase (Homo sapiens, UniProt P16050)
T1 sequence (P16050 1-662): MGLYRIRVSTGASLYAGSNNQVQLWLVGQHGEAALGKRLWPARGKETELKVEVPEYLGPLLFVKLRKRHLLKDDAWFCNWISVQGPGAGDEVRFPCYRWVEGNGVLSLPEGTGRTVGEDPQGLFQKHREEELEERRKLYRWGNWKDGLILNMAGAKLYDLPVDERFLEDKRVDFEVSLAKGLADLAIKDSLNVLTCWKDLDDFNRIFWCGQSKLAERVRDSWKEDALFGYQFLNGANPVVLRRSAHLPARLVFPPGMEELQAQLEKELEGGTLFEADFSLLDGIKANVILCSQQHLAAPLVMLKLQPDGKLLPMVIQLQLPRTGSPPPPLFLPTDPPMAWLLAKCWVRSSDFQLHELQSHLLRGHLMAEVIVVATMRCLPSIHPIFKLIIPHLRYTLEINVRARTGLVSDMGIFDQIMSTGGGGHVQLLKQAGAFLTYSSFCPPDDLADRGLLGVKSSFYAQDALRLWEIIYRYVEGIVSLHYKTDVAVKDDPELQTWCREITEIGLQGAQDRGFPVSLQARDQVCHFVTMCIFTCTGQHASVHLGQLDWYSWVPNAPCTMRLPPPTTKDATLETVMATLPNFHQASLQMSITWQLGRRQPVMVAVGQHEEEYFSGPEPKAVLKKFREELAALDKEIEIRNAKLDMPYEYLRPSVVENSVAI
Assay: 15-lipoxygenase inhibition assay (arachidonic acid oxidation, HPLC readout)
Type: biochemical
Settings: arachidonic acid substrate, room temperature
Description: The assay employed takes advantage of the ability of lipoxygenases to oxidize polyunsaturated fatty acids, containing a 1,4-cis-pentadiene configuration, to their corresponding hydroperoxy or hydroxyl derivatives. In this particular assay, the lipoxygenase was a purified human 15-lipoxygenase and the fatty acid was arachidonic acid. The assay is performed at room temperature (20-22° C.) and the following are added to each well in a 96-well microtiter plate:
a) 35 μL phosphate buffered saline […] (pH 7.4); b) inhibitor (i.e. compound) or vehicle (0.5 μl DMSO); c) 10 μL of a 10× concentrated solution of 15-lipoxygenase in PBS. […] The plate is then incubated for 10 minutes at room temperature; e) the enzymatic reaction is terminated by the addition of 100 μl MeOH; and f) the amount of 15-hydroperoxy-eicosatetraenoic acid or 15-hydroxy-eicosatetraenoic acid is measured by reverse phase HPLC.

| IC50 [nM] | Compound |
| --- | --- |
| 69 | O=C(Nc1ccccc1OC(F)F)c1cc(Cl)[nH]n1 [Example 19, 5-Chloro-N-(2-difluoro-methoxyphenyl)pyrazole-3-carboxamide] |
| 265 | O=C(Nc1ccc(F)cc1F)c1cc(Cl)[nH]n1 [Example 5, 5-Chloro-N-(2,4-difluorophenyl)pyrazole-3-carboxamide] |
| 78 | O=C(Nc1ccc(Cl)cc1)c1cc(Cl)[nH]n1 [Example 8, 5-Chloro-N-(4-chlorophenyl)pyrazole-3-carboxamide] |
| 182 | O=C(Nc1ccc(F)cc1)c1cc(Cl)[nH]n1 [Example 7, 5-Chloro-N-(4-fluorophenyl)pyrazole-3-carboxamide] |
